Test [1] deals with HCC827-SVD cells (human EGFR exon 20 insertion mutant D770_N771insSVD). In words: Cell growth inhibition (CellTiter-Glo), HCC827-SVD. The test is classed as cell-based. The following applies: 72 h, 3 days. How it is done: (§1) Generation of HCC827-SVD, HCC827-ASV, and HCC827-YVMA cell lines. The HCC827-SVD cell line was generated by first transducing HCC827 cells (ATCC) with lentiviral particles expressing codon-optimized human EGFR exon 20 insertion mutant D770_N771insSVD, and then selecting under 5 µg/mL puromycin treatment for a week. The resulting cells were further transduced with lentiviral particles carrying EGFR sgRNA and CAS9 to knockout the endogenous alleles of EGER and then selected under 500 µg/mL hygromycin B treatment for two weeks. The limiting dilution approach was used to subsequently generate the single clone of the HCC827-SVD stable cell line. Endogenous EGFR knockout was confirmed by Sanger sequencing of cell genomic DNA, and expression of exogenous mutant EGFR was verified by Western blot analysis.
(§2) 2. Cell Growth Inhibition for HCC827, HCC827-SVD, HCC827-ASV, HCC827-YVMA, and A431.
(§3) HCC827(ATCC), HCC827-SVD, HCC827-ASV, and HCC827-YVMA cells were seeded in 96-well plates at 5000 cells/well in 90 μL of RPMI growth medium containing 10% FBS and 1% Penicillin Streptomycin. A431 (ATCC) cells were seeded in 96-well plates at 5000 cells/well in 90 μL of DMEM growth medium containing 10% FBS and 1% Penicillin Streptomycin. Cells were incubated at 37° C. overnight and then administered with 10 μL 10× test compounds prepared in the growth medium at various concentrations. After administration of the compounds, cells were incubated at 37° C. for 3 days. Before the CellTiter-Glo assay, the plates were equilibrated at room temperature for approximately 30 minutes. 100 ul of CellTiter-Glo reagent (Promega) was added to each well. The plates were then incubated at room temperature for 10 minutes and luminescence was recorded by the EnSight® multimode plate reader (PerkinElmer). Table 7 listed selected compounds in cellular growth assay.
A general note: Cellular ATP, detected with luciferase, serves as a proxy for viable cell number.

Test [2] deals with HCC827-YVMA cells (human ERBB2 exon20 insertion mutant A775_G776ins YVMA). In words: Cell growth inhibition (CellTiter-Glo), HCC827-YVMA. The test is classed as cell-based. To be noted: 72 h, HCC827-YVMA cells, 3 days, CellTiter-Glo, read-out: Cell growth inhibition, GI50 (nM) HCC827-YVMA. How it is done: as §1
HCC827-ASV and HCC827-YVMA cell lines were generated in a similar approach as HCC827-SVD, except that HCC827 cells (ATCC) were first transduced with lentiviral particles expressing codon-optimized human EGFR exon 20 insertion mutant V769_D770insASV and human ERBB2 exon20 insertion mutant A775_G776ins YVMA, respectively.
as §2, §3

By GI50 is commonly meant the concentration at which growth is held to half of that of the control.

The structures appear in SMILES notation.

For the molecule `C=CC(=O)N1CCC(c2c[nH]c3ncnc(Nc4ccc(Oc5ccnc(NC(=O)C6CCCC6)c5)c(Cl)c4)c23)CC1` [Compound 38, N-[4-[2-chloro-4-[[5-(1-prop-2-enoyl-4-piperidyl)-7H-pyrrolo[2,3-d]pyrimidin-4-yl]amino]phenoxy]-2-pyridyl]cyclopentanecarboxamide], the GI50 in test [1] and in test [2] was 50 to 200 nM throughout.
Consider `C=CC(=O)N1CCC(c2c[nH]c3ncnc(Nc4ccc(Oc5ccnc(NC6(C)CC6)c5)cc4F)c23)CC1` [Compound 56, 1-(4-(4-((2-fluoro-4-((2-((1-methylcyclopropyl)amino)pyridin-4-yl)oxy)phenyl)amino)-7H-pyrrolo[2,3-d]pyrimidin-5-yl)piperidin-1-yl)prop-2-en-1-one], for which the GI50 in test [1] and in test [2] was 200 to 1000 nM each time.
As for `C=CC(=O)N1CCC(c2c[nH]c3ncnc(Nc4ccc(OCc5cccc(F)n5)c(Cl)c4)c23)CC1` [Compound 36, 1-(4-(4-((3-chloro-4-((6-fluoropyridin-2-yl)methoxy)phenyl)amino)-7H-pyrrolo[2,3-d]pyrimidin-5-yl)piperidin-1-yl)prop-2-en-1-one], the GI50 in test [1] and in test [2] was under 50 nM each time.
Turning to `C=CC(=O)N1CCC(c2c[nH]c3ncnc(Nc4ccc(OCc5ncccc5F)c(Cl)c4)c23)CC1` [Compound 37, 1-(4-(4-((3-chloro-4-((3-fluoropyridin-2-yl)methoxy)phenyl)amino)-7H-pyrrolo[2,3-d]pyrimidin-5-yl)piperidin-1-yl)prop-2-en-1-one], the 50% growth inhibitory concentration (GI50) in test [1] and in test [2] was under 50 nM throughout.
With `C=CC(=O)N1CCC(c2c[nH]c3ncnc(Nc4ccc(Oc5ccnc(N6CCC(C)(F)C6)c5)cc4F)c23)CC1` (stereo not drawn) [Compound 57, 1-[4-[4-[2-fluoro-4-[[2-(3-fluoro-3-methyl-pyrrolidin-1-yl)-4-pyridyl]oxy]anilino]-7H-pyrrolo[2,3-d]pyrimidin-5-yl]-1-piperidyl]prop-2-en-1-one], the GI50 in test [1] and in test [2] was 200 to 1000 nM throughout.
In the case of `C=CC(=O)N1CCC(c2c[nH]c3ncnc(Nc4ccc(OCc5cnn6c5CCCC6)c(Cl)c4)c23)CC1` [Compound 60, 1-(4-(4-((3-chloro-4-((4,5,6,7-tetrahydropyrazolo[1,5-a]pyridin-3-yl)methoxy)phenyl)amino)-7H-pyrrolo[2,3-d]pyrimidin-5-yl)piperidin-1-yl)prop-2-en-1-one], the results for the GI50 in test [1] and in test [2] were 50 to 200 nM and 200 to 1000 nM, respectively.
In the case of `C=CC(=O)N1CCC(c2c[nH]c3ncnc(Nc4ccc(CNc5ccccn5)cc4F)c23)CC1` [Compound 69, 1-(4-(4-((2-fluoro-4-((pyridin-2-ylamino)methyl)phenyl)amino)-7H-pyrrolo[2,3-d]pyrimidin-5-yl)piperidin-1-yl)prop-2-en-1-one], the GI50 in test [1] and in test [2] was under 50 nM each time.
Consider `C=CC(=O)N1CCC(c2c[nH]c3ncnc(Nc4ccc(OCc5cnc(C(F)(F)F)s5)c(Cl)c4)c23)CC1` [Compound 87, 1-(4-(4-((3-chloro-4-((2-(trifluoromethyl)thiazol-5-yl)methoxy)phenyl)amino)-7H-pyrrolo[2,3-d]pyrimidin-5-yl)piperidin-1-yl)prop-2-en-1-one], for which the GI50 in test [1] and in test [2] was 50 to 200 nM each time.
Regarding `C=CC(=O)N1CCC(c2c[nH]c3ncnc(Nc4ccc(Oc5ccnc(N6CC(N(C)C)C6)c5)cc4F)c23)CC1` [Compound 129, 1-(4-(4-((4-((2-(3-(dimethylamino)azetidin-1-yl)pyridin-4-yl)oxy)-2-fluorophenyl)amino)-7H-pyrrolo[2,3-d]pyrimidin-5-yl)piperidin-1-yl)prop-2-en-1-one], the concentration for 50% growth inhibition (GI50) in test [1] and in test [2] was 200 to 1000 nM each time.
In the case of `C=CC(=O)N1CCC(c2csc3ncnc(Nc4ccc(Oc5ccnc(NC(=O)C(C)(C)C)c5)cc4F)c23)CC1` [Compound 162, N-(4-(4-((5-(1-acryloylpiperidin-4-yl)thieno[2,3-d]pyrimidin-4-yl)amino)-3-fluorophenoxy)pyridin-2-yl)pivalamide], the results for the GI50 in test [1] and in test [2] were over 1000 nM and 200 to 1000 nM, respectively.
The corresponding values for `C=CC(=O)N1CCC(c2c[nH]c3ncnc(Nc4ccc(Oc5ccnc(NCC(C)C)n5)cc4F)c23)CC1` [Compound 45, 1-(4-(4-((2-fluoro-4-((2-(isoButylamino)pyrimidin-4-yl)oxy)phenyl)amino)-7H-pyrrolo[2,3-d]pyrimidin-5-yl)piperidin-1-yl)prop-2-en-1-one] are 50 to 200 nM and 50 to 200 nM.
In the case of `C=CC(=O)N1CCC(c2c[nH]c3ncnc(Nc4ccc(OCC(=O)NC(C)C)c(Cl)c4)c23)CC1` [Compound 55, 2-(4-((5-(1-acryloylpiperidin-4-yl)-7H-pyrrolo[2,3-d]pyrimidin-4-yl)amino)-2-chlorophenoxy)-N-isopropylacetamide], the GI50 in test [1] and in test [2] was under 50 nM throughout.
As to `C=CC(=O)N1CCC(c2c[nH]c3ncnc(Nc4ccc(OCc5cncc(OC)c5)c(Cl)c4)c23)CC1` [Compound 80, 1-(4-(4-((3-chloro-4-((5-methoxypyridin-3-yl)methoxy)phenyl)amino)-7H-pyrrolo[2,3-d]pyrimidin-5-yl)piperidin-1-yl)prop-2-en-1-one], the GI50 in test [1] and in test [2] was under 50 nM throughout.
As to `C=CC(=O)N1CCC(c2c[nH]c3ncnc(Nc4ccc(OCc5cnccc5OC)c(Cl)c4)c23)CC1` [Compound 71, 1-(4-(4-((3-chloro-4-((4-methoxypyridin-3-yl)methoxy)phenyl)amino)-7H-pyrrolo[2,3-d]pyrimidin-5-yl)piperidin-1-yl)prop-2-en-1-one], the GI50 in test [1] and in test [2] was under 50 nM throughout.
On to `C=CC(=O)N1CCC(c2c[nH]c3ncnc(Nc4ccc(Oc5ccnc(Nc6nccs6)c5)cc4F)c23)CC1` [Compound 72, 1-(4-(4-((2-fluoro-4-((2-(thiazol-2-ylamino)pyridin-4-yl)oxy)phenyl)amino)-7H-pyrrolo[2,3-d]pyrimidin-5-yl)piperidin-1-yl)prop-2-en-1-one], for which the concentration for 50% growth inhibition (GI50) in test [1] lay in the range of 200 to 1000 nM; in test [2], 50 to 200 nM.
In the case of `C=CC(=O)N1CCC(c2c[nH]c3ncnc(Nc4ccc(C(=O)Nc5ccccn5)cc4F)c23)CC1` [Compound 70, 4-((5-(1-acryloylpiperidin-4-yl)-7H-pyrrolo[2,3-d]pyrimidin-4-yl)amino)-3-fluoro-N-(pyridin-2-yl)benzamide], the GI50 in test [1] was under 50 nM; in test [2], 50 to 200 nM.
The corresponding values for `C=CC(=O)N1CCC(c2c[nH]c3ncnc(Nc4ccc(Oc5ccnc(-c6ccn(C)n6)c5)cc4F)c23)CC1` [Compound 66, 1-(4-(4-((2-fluoro-4-((2-(1-methyl-1H-pyrazol-3-yl)pyridin-4-yl)oxy)phenyl)amino)-7H-pyrrolo[2,3-d]pyrimidin-5-yl)piperidin-1-yl)prop-2-en-1-one] are 200 to 1000 nM and 50 to 200 nM.
The corresponding values for `C=CC(=O)N1CCC(c2c[nH]c3ncnc(Nc4ccc(Oc5ccnc(N6CCC(C(F)(F)F)C6)n5)cc4F)c23)CC1` (stereo not drawn) [Compound 50, 1-(4-(4-((2-fluoro-4-((2-(3-(trifluoromethyl)pyrrolidin-1-yl)pyrimidin-4-yl)oxy)phenyl)amino)-7H-pyrrolo[2,3-d]pyrimidin-5-yl)piperidin-1-yl)prop-2-en-1-one] are 200 to 1000 nM and 50 to 200 nM.
Taken in the same sequence, the figures for `C=CC(=O)N1CCC(c2c[nH]c3ncnc(Nc4ccc(Oc5ccnc(Nc6ccccn6)n5)cc4F)c23)CC1` [Compound 44, 1-(4-(4-((2-fluoro-4-((2-(pyridin-2-ylamino)pyrimidin-4-yl)oxy)phenyl)amino)-7H-pyrrolo[2,3-d]pyrimidin-5-yl)piperidin-1-yl)prop-2-en-1-one] were 200 to 1000 nM and 200 to 1000 nM.
Take `C=CC(=O)N1CCC(c2c[nH]c3ncnc(Nc4ccc(OCc5cc(C6CC6)ccn5)c(Cl)c4)c23)CC1` [Compound 89, 1-(4-(4-((3-chloro-4-((4-cyclopropylpyridin-2-yl)methoxy)phenyl)amino)-7H-pyrrolo[2,3-d]pyrimidin-5-yl)piperidin-1-yl)prop-2-en-1-one]: the GI50 in test [1] and in test [2] was 50 to 200 nM each time.
Consider `C=CC(=O)N1CCC(c2c[nH]c3ncnc(Nc4ccc(OCc5nc(CNc6ncn(C)n6)cs5)c(Cl)c4)c23)CC1` [Compound 62, 1-(4-(4-((3-chloro-4-((4-(((1-methyl-1H-1,2,4-triazol-3-yl)amino)methyl)thiazol-2-yl)methoxy)phenyl)amino)-7H-pyrrolo[2,3-d]pyrimidin-5-yl)piperidin-1-yl)prop-2-en-1-one], for which the GI50 fell in the range of 200 to 1000 nM in test [1] and 50 to 200 nM in test [2].

The values above are taken from patent US20240059698A1 (Accutar Biotechnology Inc., priority 2022, published 2024).
